Measured values taken from PubChem BioAssay AID2060483 (Molecular Pharmacology Branch, DTP, NCI, 2025).

Tested on: K24384-001-R-PDC complex spheroids, viability
Assay: Anticancer human tumor K24384-001-R-PDC patient-derived pancreatic adenocarcinoma cell line growth inhibition [GQUAD]
Details: for IC50: curve of first compound; for viability, T/C: stronger effect = lower value
Procedure, shortened: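 Multi-cell-type spheroids of tumor cells with HUVEC and mesenchymal stem cells, treated with drug combinations. Concentrations descend in half-log steps from near clinical Cmax, or from 10 microM where Cmax is unknown; viability read-out.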

[1] = second compound 0.0316 µM, first compound 0.0316 µM
[2] = second compound 0.0316 µM, first compound 0.1 µM
[3] = second compound 0.0316 µM, first compound 0.316 µM
[4] = second compound 0.0316 µM, first compound 1 µM
[5] = second compound 0.0316 µM, first compound 3.16 µM
[6] = second compound 0.0316 µM, first compound 10 µM
[7] = second compound 0.1 µM, first compound 0.0316 µM
[8] = second compound 0.1 µM, first compound 0.1 µM
[9] = second compound 0.1 µM, first compound 0.316 µM
[10] = second compound 0.1 µM, first compound 1 µM
[11] = second compound 0.1 µM, first compound 3.16 µM
[12] = second compound 0.1 µM, first compound 10 µM
[13] = second compound 0.316 µM, first compound 0.0316 µM
[14] = second compound 0.316 µM, first compound 0.1 µM
[15] = second compound 0.316 µM, first compound 0.316 µM
[16] = second compound 0.316 µM, first compound 1 µM
[17] = second compound 0.316 µM, first compound 3.16 µM
[18] = second compound 0.316 µM, first compound 10 µM
[19] = second compound 1 µM, first compound 0.0316 µM
[20] = second compound 1 µM, first compound 0.1 µM
[21] = second compound 1 µM, first compound 0.316 µM
[22] = second compound 1 µM, first compound 1 µM
[23] = second compound 1 µM, first compound 3.16 µM
[24] = second compound 1 µM, first compound 10 µM
[25] = second compound 3.16 µM, first compound 0.0316 µM
[26] = second compound 3.16 µM, first compound 0.1 µM
[27] = second compound 3.16 µM, first compound 0.316 µM
[28] = second compound 3.16 µM, first compound 1 µM
[29] = second compound 3.16 µM, first compound 3.16 µM
[30] = second compound 3.16 µM, first compound 10 µM
[31] = second compound 10 µM, first compound 0.0316 µM
[32] = second compound 10 µM, first compound 0.1 µM
[33] = second compound 10 µM, first compound 0.316 µM
[34] = second compound 10 µM, first compound 1 µM
[35] = second compound 10 µM, first compound 3.16 µM
[36] = second compound 10 µM, first compound 10 µM
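Also: spheroids exposed to compounds for seven days.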

C=CCn1c(=O)c2cnc(Nc3ccc(N4CCN(C)CC4)cc3)nc2n1-c1cccc(C(C)(C)O)n1 + CN(C)c1ccc(Nc2c3ccc(NC(=O)CCN4CCCC4)cc3nc3cc(NC(=O)CCN4CCCC4)ccc23)cc1
IC50 (second compound 0.0316 µM): 392 nM | IC50 (second compound 0.1 µM): 266 nM | IC50 (second compound 0.316 µM): 236 nM | IC50 (second compound 1 µM): 275 nM | IC50 (second compound 3.16 µM): 235 nM | IC50 (second compound 10 µM): 229 nM | viability, T/C [1]: 85.5% | viability, T/C [2]: 81% | viability, T/C [3]: 57.3% | viability, T/C [4]: 18% | viability, T/C [5]: 15.9% | viability, T/C [6]: 17.9% | viability, T/C [7]: 76.2% | viability, T/C [8]: 68.9% | viability, T/C [9]: 47% | viability, T/C [10]: 15.6% | viability, T/C [11]: 14% | viability, T/C [12]: 14.8% | viability, T/C [13]: 80.2% | viability, T/C [14]: 86.7% | viability, T/C [15]: 38.6% | viability, T/C [16]: 16.3% | viability, T/C [17]: 12% | viability, T/C [18]: 14.5% | viability, T/C [19]: 76.7% | viability, T/C [20]: 83.3% | viability, T/C [21]: 45.9% | viability, T/C [22]: 19.1% | viability, T/C [23]: 12.2% | viability, T/C [24]: 18% | viability, T/C [25]: 84.2% | viability, T/C [26]: 80.3% | viability, T/C [27]: 39.3% | viability, T/C [28]: 19.3% | viability, T/C [29]: 16.3% | viability, T/C [30]: 13.6% | viability, T/C [31]: 63.5% | viability, T/C [32]: 64.8% | viability, T/C [33]: 44.5% | viability, T/C [34]: 20% | viability, T/C [35]: 16.9% | viability, T/C [36]: 13.1%

COc1ncnc(C2CC2)c1-c1ncc2cnn(Cc3ccc(-c4nc(C(F)(F)F)cn4C(C)C)cc3)c2n1 + CN(C)c1ccc(Nc2c3ccc(NC(=O)CCN4CCCC4)cc3nc3cc(NC(=O)CCN4CCCC4)ccc23)cc1
IC50 (second compound 0.0316 µM): > 10000 nM | IC50 (second compound 0.1 µM): > 10000 nM | IC50 (second compound 0.316 µM): > 10000 nM | IC50 (second compound 1 µM): > 10000 nM | IC50 (second compound 3.16 µM): > 10000 nM | IC50 (second compound 10 µM): 6950 nM | viability, T/C [1]: 85% | viability, T/C [2]: 107% | viability, T/C [3]: 107% | viability, T/C [4]: 96.9% | viability, T/C [5]: 83.6% | viability, T/C [6]: 104% | viability, T/C [7]: 73.9% | viability, T/C [8]: 86.3% | viability, T/C [9]: 100% | viability, T/C [10]: 86.1% | viability, T/C [11]: 96.7% | viability, T/C [12]: 110% | viability, T/C [13]: 79.9% | viability, T/C [14]: 90.7% | viability, T/C [15]: 77% | viability, T/C [16]: 102% | viability, T/C [17]: 97.2% | viability, T/C [18]: 93.5% | viability, T/C [19]: 88.1% | viability, T/C [20]: 84.2% | viability, T/C [21]: 88.6% | viability, T/C [22]: 95.6% | viability, T/C [23]: 73.7% | viability, T/C [24]: 88.6% | viability, T/C [25]: 85.1% | viability, T/C [26]: 112% | viability, T/C [27]: 85.6% | viability, T/C [28]: 79.1% | viability, T/C [29]: 86.9% | viability, T/C [30]: 91.8% | viability, T/C [31]: 65.7% | viability, T/C [32]: 99.2% | viability, T/C [33]: 79.2% | viability, T/C [34]: 88% | viability, T/C [35]: 70.4% | viability, T/C [36]: 40.6%

CC1COCCN1c1cc(C2(O)CC3CCC(C2)O3)c2cnn(-c3ccn[nH]3)c2n1 (stereo not drawn) + Cc1[nH]c2ccc(F)cc2c1-c1nc2c3cccnc3c3ncccc3c2[nH]1
IC50 (second compound 0.0316 µM): 230 nM | IC50 (second compound 0.1 µM): 209 nM | IC50 (second compound 0.316 µM): 179 nM | IC50 (second compound 1 µM): 182 nM | IC50 (second compound 3.16 µM): 139 nM | IC50 (second compound 10 µM): 61.1 nM | viability, T/C [1]: 75.8% | viability, T/C [2]: 57.4% | viability, T/C [3]: 51.6% | viability, T/C [4]: 27% | viability, T/C [5]: 24.5% | viability, T/C [6]: 19.8% | viability, T/C [7]: 65.6% | viability, T/C [8]: 82.1% | viability, T/C [9]: 36.4% | viability, T/C [10]: 30.2% | viability, T/C [11]: 33.5% | viability, T/C [12]: 22.7% | viability, T/C [13]: 69% | viability, T/C [14]: 54.9% | viability, T/C [15]: 44.2% | viability, T/C [16]: 32.4% | viability, T/C [17]: 32.9% | viability, T/C [18]: 19.1% | viability, T/C [19]: 77.3% | viability, T/C [20]: 59.7% | viability, T/C [21]: 37.2% | viability, T/C [22]: 35.2% | viability, T/C [23]: 32.4% | viability, T/C [24]: 18.1% | viability, T/C [25]: 53.8% | viability, T/C [26]: 63.4% | viability, T/C [27]: 28.4% | viability, T/C [28]: 30.5% | viability, T/C [29]: 28.7% | viability, T/C [30]: 13.2% | viability, T/C [31]: 55.3% | viability, T/C [32]: 50.9% | viability, T/C [33]: 26.2% | viability, T/C [34]: 28.4% | viability, T/C [35]: 22.9% | viability, T/C [36]: 9.97%

CC1COCCN1c1cc(C2(S(C)(=N)=O)CC2)nc(-c2ccnc3[nH]ccc23)n1 (stereo not drawn) + Cc1[nH]c2ccc(F)cc2c1-c1nc2c3cccnc3c3ncccc3c2[nH]1
IC50 (second compound 0.0316 µM): 1610 nM | IC50 (second compound 0.1 µM): 1710 nM | IC50 (second compound 0.316 µM): 1500 nM | IC50 (second compound 1 µM): 1990 nM | IC50 (second compound 3.16 µM): 2040 nM | IC50 (second compound 10 µM): 1250 nM | viability, T/C [1]: 82.5% | viability, T/C [2]: 94.6% | viability, T/C [3]: 112% | viability, T/C [4]: 64.2% | viability, T/C [5]: 37.2% | viability, T/C [6]: 22.6% | viability, T/C [7]: 87.1% | viability, T/C [8]: 95.7% | viability, T/C [9]: 107% | viability, T/C [10]: 66.6% | viability, T/C [11]: 34.6% | viability, T/C [12]: 27.5% | viability, T/C [13]: 81.6% | viability, T/C [14]: 85.5% | viability, T/C [15]: 101% | viability, T/C [16]: 58.8% | viability, T/C [17]: 38.5% | viability, T/C [18]: 29.2% | viability, T/C [19]: 87.5% | viability, T/C [20]: 84.1% | viability, T/C [21]: 87.1% | viability, T/C [22]: 63.6% | viability, T/C [23]: 41.5% | viability, T/C [24]: 31.6% | viability, T/C [25]: 71.6% | viability, T/C [26]: 72.6% | viability, T/C [27]: 72.9% | viability, T/C [28]: 61% | viability, T/C [29]: 43% | viability, T/C [30]: 26% | viability, T/C [31]: 56.5% | viability, T/C [32]: 64.4% | viability, T/C [33]: 58.5% | viability, T/C [34]: 54.3% | viability, T/C [35]: 32.5% | viability, T/C [36]: 16.5%
